The source of these data is ChEMBL document CHEMBL5370537, “Aporphines: A privileged scaffold in CNS drug discovery” (Eur J Med Chem, 2023).

Assay [1] concerns BV-2. Description: Inhibition of NO production in LPS-induced mouse BV-2 cells incubated for 24 hrs by Griess reagent based microplate reader analysis. To be noted: BV-2, 24 h. The class given is functional, cell-based. In general terms: Nitrite, measured by Griess reagent, commonly stands in for NO production.
In assay [2] the target is Acetylcholinesterase (Electrophorus electricus) (UniProt O42275). In words: Potency index, ratio of (S)-Dicentrine IC50 to test compound IC50 for inhibition of Electrophorus electricus AChE using ATCI as substrate pre-incubated for 10 mins followed by substrate addition measured after 5 mins by microplate reader analysis. The conditions noted are these: time 15.0 min.
Chain of Acetylcholinesterase (Electrophorus electricus) (O42275 24-633 limits assumed): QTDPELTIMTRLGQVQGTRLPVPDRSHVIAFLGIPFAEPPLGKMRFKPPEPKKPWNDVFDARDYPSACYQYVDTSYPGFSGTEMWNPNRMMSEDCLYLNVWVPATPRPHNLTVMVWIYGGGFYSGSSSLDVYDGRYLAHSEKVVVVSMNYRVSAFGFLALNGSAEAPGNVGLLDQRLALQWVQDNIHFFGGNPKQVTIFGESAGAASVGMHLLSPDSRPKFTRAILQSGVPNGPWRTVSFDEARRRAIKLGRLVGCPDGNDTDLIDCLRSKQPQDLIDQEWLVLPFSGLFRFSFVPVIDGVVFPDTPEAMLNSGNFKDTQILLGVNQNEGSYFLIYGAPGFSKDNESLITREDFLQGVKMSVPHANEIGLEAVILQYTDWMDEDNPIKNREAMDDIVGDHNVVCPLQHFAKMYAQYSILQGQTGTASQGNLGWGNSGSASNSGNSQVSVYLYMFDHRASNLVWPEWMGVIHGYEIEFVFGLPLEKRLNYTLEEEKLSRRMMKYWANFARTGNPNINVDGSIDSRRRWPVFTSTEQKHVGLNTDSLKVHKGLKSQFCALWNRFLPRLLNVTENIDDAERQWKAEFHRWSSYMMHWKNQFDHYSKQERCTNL
Assay [3] shares this target. In words: Potency index, ratio of (R)-Stephanine IC50 to test compound IC50 for inhibition of Electrophorus electricus AChE using ATCI as substrate pre-incubated for 10 mins followed by substrate addition measured after 5 mins by microplate reader analysis. To be noted: time 15.0 min.
The target in another assay is Acetylcholinesterase (Electrophorus electricus, UniProt O42275). In words: Inhibition of Electrophorus electricus AChE using ATCI as substrate pre-incubated for 10 mins followed by substrate addition measured after 5 mins by microplate reader analysis.
Chain of Acetylcholinesterase (O42275 whole entry): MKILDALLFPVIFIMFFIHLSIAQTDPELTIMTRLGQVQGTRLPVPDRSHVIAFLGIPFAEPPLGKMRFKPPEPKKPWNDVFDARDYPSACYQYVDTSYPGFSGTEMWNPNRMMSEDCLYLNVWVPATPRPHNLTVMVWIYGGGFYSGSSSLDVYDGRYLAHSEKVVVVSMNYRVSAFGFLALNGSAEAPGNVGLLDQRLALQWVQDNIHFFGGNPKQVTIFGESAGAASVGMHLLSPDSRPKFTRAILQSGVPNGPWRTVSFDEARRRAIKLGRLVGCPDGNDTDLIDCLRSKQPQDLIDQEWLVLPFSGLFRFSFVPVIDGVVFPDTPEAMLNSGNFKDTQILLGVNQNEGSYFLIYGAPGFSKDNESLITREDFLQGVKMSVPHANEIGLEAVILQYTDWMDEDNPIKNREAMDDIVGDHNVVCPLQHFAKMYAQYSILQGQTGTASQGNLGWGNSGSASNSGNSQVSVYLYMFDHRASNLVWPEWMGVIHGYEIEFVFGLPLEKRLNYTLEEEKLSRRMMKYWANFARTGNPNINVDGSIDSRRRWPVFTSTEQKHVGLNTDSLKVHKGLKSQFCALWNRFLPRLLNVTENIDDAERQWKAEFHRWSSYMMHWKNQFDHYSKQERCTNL
The target of assay [4] is Acetylcholinesterase (Electrophorus electricus) (UniProt O42275). In words: Potency index, ratio of (R)-Roemerine IC50 to test compound IC50 for inhibition of Electrophorus electricus AChE using ATCI as substrate pre-incubated for 10 mins followed by substrate addition measured after 5 mins by microplate reader analysis. To be noted: time 15.0 min.
The target of a further assay is Cholinesterase (Equus caballus, UniProt P81908). Description: Inhibition of equine serum BuChE using BTCI as substrate pre-incubated for 10 mins followed by substrate addition measured after 5 mins by microplate reader analysis.
Chain of Cholinesterase (P81908 whole entry): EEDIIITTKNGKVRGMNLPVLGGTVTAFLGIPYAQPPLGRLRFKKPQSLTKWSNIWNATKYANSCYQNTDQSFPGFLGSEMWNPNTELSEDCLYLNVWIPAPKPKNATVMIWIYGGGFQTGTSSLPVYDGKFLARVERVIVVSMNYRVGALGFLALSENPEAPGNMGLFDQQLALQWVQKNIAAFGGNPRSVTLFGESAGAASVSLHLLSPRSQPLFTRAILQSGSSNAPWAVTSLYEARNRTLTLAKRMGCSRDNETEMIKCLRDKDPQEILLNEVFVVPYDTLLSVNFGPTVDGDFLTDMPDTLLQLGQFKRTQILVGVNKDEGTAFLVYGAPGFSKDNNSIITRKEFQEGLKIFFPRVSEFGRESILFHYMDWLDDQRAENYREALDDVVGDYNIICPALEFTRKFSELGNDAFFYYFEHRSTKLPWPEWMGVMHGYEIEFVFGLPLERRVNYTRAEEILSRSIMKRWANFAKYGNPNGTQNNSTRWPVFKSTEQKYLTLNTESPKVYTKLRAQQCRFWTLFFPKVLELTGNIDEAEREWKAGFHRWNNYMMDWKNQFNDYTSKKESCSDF
The target in another assay is D(1A) dopamine receptor (Homo sapiens, UniProt P21728). In words: Antagonist activity at D1R (unknown origin) transfected in HEK293 cells by FLIPR assay.
Chain of D(1A) dopamine receptor (P21728 whole entry): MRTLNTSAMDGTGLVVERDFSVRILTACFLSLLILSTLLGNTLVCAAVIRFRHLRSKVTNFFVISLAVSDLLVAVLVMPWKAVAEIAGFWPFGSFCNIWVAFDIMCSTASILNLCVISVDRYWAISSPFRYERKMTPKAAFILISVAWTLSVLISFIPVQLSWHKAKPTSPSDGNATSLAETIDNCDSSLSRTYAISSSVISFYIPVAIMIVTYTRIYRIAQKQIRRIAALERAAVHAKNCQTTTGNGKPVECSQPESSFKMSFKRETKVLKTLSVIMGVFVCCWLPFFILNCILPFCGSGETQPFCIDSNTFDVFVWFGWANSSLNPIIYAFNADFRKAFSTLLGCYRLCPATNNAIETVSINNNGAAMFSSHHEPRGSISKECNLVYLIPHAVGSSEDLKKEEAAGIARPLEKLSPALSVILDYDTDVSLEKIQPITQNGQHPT
The target of assay [5] is T1, 5-hydroxytryptamine receptor 2C (Homo sapiens) (UniProt P28335).
T1 sequence (whole entry): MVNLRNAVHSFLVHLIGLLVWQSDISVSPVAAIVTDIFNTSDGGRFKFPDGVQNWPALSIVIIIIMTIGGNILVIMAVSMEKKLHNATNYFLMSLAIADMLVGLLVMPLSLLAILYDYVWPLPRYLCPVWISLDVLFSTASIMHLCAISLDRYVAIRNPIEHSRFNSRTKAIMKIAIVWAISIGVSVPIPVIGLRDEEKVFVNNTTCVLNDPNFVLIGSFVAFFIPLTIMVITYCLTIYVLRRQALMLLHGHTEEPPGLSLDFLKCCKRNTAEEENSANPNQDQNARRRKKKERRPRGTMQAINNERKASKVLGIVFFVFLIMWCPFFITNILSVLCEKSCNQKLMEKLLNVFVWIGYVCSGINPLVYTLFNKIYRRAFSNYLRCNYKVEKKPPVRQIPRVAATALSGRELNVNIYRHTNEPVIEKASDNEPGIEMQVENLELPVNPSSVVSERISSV
Description: Partial agonist activity at human 5-HT2C stably transfected in HEK293T cells measured after 18 to 24 hrs by FLIPR assay relative to control. It is filed as functional, cell-based. The conditions noted are these: filed as partial agonist, time 18-24 hrs.

Assay [6] addresses T2, 5-hydroxytryptamine receptor 2C (Homo sapiens, UniProt P28335).
T2 sequence (P28335 whole entry): T1 sequence (whole entry)
Description: Partial agonist activity at human 5-HT2C stably transfected in HEK293T cells measured after 18 to 24 hrs by FLIPR assay. The class given is functional, cell-based.

Assay [7] concerns the target 5-hydroxytryptamine receptor 2A (Homo sapiens, UniProt P28223). Description: Antagonist activity at 5-HT2A (unknown origin) transfected in HEK293 cells by FLIPR assay. It is filed as functional, cell-based.
The target of assay [8] is 5-hydroxytryptamine receptor 7 (Rattus norvegicus, UniProt P32305). In words: Displacement of [3H]5-HT from rat 5-HT7 assessed as inhibition constant. In general terms: In a radioligand displacement assay an active substance lowers the binding of a labelled ligand.
Chain of 5-hydroxytryptamine receptor 7 (P32305 whole entry): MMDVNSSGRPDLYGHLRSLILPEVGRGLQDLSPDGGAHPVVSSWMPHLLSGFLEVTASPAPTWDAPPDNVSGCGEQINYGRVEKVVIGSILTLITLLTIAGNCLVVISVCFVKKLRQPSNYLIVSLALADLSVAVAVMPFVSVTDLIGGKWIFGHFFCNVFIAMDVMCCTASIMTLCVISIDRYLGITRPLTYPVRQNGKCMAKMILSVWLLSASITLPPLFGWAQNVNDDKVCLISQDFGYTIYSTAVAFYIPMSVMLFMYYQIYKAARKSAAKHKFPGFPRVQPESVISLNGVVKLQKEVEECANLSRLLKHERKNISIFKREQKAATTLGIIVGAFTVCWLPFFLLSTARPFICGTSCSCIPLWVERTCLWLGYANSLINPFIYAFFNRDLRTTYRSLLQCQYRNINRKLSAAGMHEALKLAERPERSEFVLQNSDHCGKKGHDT
Assay [9] concerns BV-2. In words: Potency index, ratio of minocycline IC50 to test compound IC50 for inhibition of NO production in LPS-induced mouse BV-2 cells incubated for 24 hrs by Griess reagent based microplate reader analysis. It is filed as functional.
For the next assay, the system named is SH-SY5Y. Description: Neuroprotective activity against human SH-SY5Y cells assessed as increase in BDNF level measured after 48 hrs. It is filed as functional, cell-based.
Assay [10] deals with T1, 5-hydroxytryptamine receptor 2C (Homo sapiens). In words: Agonist activity at 5-HT2C (unknown origin) relative to control. It is filed as functional. The conditions noted are these: filed as agonist.
Assay [11] has as its target T2, 5-hydroxytryptamine receptor 2C. In words: Agonist activity at 5-HT2C (unknown origin). It is filed as functional.
For the next assay, the target named is D(2) dopamine receptor (Homo sapiens, UniProt P14416). In words: Antagonist activity at D2R (unknown origin). The class given is functional.
Chain of D(2) dopamine receptor (P14416 whole entry): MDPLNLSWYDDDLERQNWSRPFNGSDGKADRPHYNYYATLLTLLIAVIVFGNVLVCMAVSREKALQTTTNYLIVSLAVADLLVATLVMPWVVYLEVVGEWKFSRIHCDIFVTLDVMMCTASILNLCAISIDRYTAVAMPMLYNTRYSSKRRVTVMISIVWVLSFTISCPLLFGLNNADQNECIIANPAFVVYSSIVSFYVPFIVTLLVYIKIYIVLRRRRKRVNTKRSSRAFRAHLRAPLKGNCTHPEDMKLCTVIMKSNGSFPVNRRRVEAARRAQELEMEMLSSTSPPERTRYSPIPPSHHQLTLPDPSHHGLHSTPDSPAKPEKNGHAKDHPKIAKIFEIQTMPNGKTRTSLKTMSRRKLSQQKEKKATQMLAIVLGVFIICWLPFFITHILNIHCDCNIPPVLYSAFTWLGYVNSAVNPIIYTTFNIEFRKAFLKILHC

Chain of 5-hydroxytryptamine receptor 2A (P28223 whole entry): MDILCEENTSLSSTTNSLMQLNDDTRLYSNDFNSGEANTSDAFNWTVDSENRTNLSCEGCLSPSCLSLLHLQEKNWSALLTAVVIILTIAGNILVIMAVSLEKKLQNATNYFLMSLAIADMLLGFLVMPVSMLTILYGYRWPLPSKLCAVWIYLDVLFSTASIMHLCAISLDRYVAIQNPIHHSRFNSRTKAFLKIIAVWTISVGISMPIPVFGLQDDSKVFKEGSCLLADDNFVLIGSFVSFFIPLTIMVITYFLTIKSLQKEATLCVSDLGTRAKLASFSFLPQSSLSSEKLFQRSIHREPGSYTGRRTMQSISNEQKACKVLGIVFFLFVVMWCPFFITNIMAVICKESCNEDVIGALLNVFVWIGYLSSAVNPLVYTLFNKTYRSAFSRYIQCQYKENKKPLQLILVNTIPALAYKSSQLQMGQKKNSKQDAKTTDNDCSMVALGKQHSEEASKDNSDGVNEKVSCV

For `COc1cccc2c1cc1c3c(cc4c(c32)OCO4)CCN1C`, in the assay on BV-2 [1], the IC50 (in general, the midpoint of a concentration-inhibition curve) was 30.2 µM.

On to `COc1cc2cc3c4c(cc5c(c4c2cc1OC)OCO5)CCN3C` [DEHYDRODICENTRINE], for which the Ratio IC50 in [2], in [3] and in assay [4] was 4 throughout. Also, the IC50 against Acetylcholinesterase was 1.09 µM; at Cholinesterase, 5.57 µM.

Regarding `COc1cccc2c1[C@@H](O)[C@@H]1c3c(cc4c(c3-2)OCO4)CCN1C`, the half-inhibitory concentration (IC50) on Acetylcholinesterase stood at 6.12 µM; at Cholinesterase it was 5.87 µM.

As to `COc1cc2c3c(c1OC)-c1ccccc1CC3NCC2` (centres undefined) [NORNUCIFERINE], half-maximal inhibition against D(1A) dopamine receptor (IC50) required 38.5 µM. For the same molecule, in [5], the Emax (as a rule, the size of the effect at its maximum, as opposed to the concentration needed) amounted to 65.6%. It took 0.308 µM to reach a half-maximal effect in assay [6] (EC50).

`COc1c(O)cc2c3c1-c1ccccc1CC3N(C)CC2` (centres undefined) registered an IC50 in assay [7] of 19.6 µM.

Regarding `CN1CCc2ccc3c4c2[C@H]1Cc1cccc(c1-4)C3`, the Ki (in general, the equilibrium dissociation constant of an inhibitor or competing ligand from its target) in [8] was 0.0043 µM.

With `COc1c(O)ccc2c1cc1c3c(cc4c(c32)OCO4)CCN1C`, the IC50 with BV-2 [1] was 39.2 µM.

Consider `COc1ccc2c(c1OC)C[C@@H]1c3c(cc4c(c3-2)OCO4)CCN1C`, for which the IC50 against Acetylcholinesterase amounted to 10.5 µM; in the assay with SH-SY5Y it was 5.26 µM; in the assay with BV-2 [1], 5.26 µM; against Cholinesterase, 17.4 µM. For the same molecule, the “Ratio IC50” value with BV-2 [9] is 3.

Regarding `Oc1cc2c3c(c1Cl)-c1ccccc1C[C@@H]3NCC2`, the Emax in [10] was 89.8%. In addition, the EC50 (as a rule, the concentration giving half of the maximal effect) in [11] is 0.0079 µM.

`COc1c(O)cc2c3c1-c1ccccc1CC3NCC2` (centres undefined) registered an IC50 against D(1A) dopamine receptor of 7.2 µM.

On to `COc1cccc2c1C[C@@H]1c3c(cc4c(c3-2)OCO4)CCN1C` [STEPHANINE], for which the IC50 against Acetylcholinesterase was 11.3 µM; on D(2) dopamine receptor, 0.85 µM; in the assay with BV-2 [1], 20.3 µM; at Cholinesterase, 2.8 µM. The “Ratio IC50” value with BV-2 [9] is given as roughly 4.

With `COc1ccc2c(c1OC)[C@@H](O)[C@@H]1c3c(cc4c(c3-2)OCO4)CCN1C`, the concentration for half-maximal inhibition (IC50) is 4.3 µM at Acetylcholinesterase and 22.5 µM against Cholinesterase.
